Measured values as given in PubChem BioAssay (NCI).
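These data come from cells grown in 96-well plates and exposed to compound for 48 hours at five concentrations. TGI denotes the concentration required for complete inhibition of growth.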

Legend:
Assay in all cases: inhibition of tumour cell growth, NCI panel, 48 h
RXF-631 renal = tested on: RXF-631 renal
DMS 114 small cell lung = tested on: DMS 114 small cell lung
M19-MEL melanoma = tested on: M19-MEL melanoma
DLD-1 colon = tested on: DLD-1 colon
KM20L2 colon = tested on: KM20L2 colon
XF 498 CNS = tested on: XF 498 CNS
MCF7 breast = tested on: MCF7 breast
BT-549 breast = tested on: BT-549 breast
MDA-N = tested on: MDA-N

Compound	TGI (RXF-631 renal) [µM]	TGI (DMS 114 small cell lung) [µM]	TGI (M19-MEL melanoma) [µM]	TGI (DLD-1 colon) [µM]	TGI (KM20L2 colon) [µM]	TGI (XF 498 CNS) [µM]	TGI (MCF7 breast) [µM]	TGI (BT-549 breast) [µM]	TGI (MDA-N) [µM]
Cc1ccc(NC(=O)/C(=N\Nc2ccc([N+](=O)[O-])cc2[N+](=O)[O-])C2C(=O)NC(=O)NC2=O)cc1	> 100	> 100	> 100	> 100	> 100	–	–	–	–
CC1=C(O)C(=O)C2C(=O)C1C(C)C2c1ccc(Cl)cc1 (stereo unspecified)	> 100	–	> 100	> 100	–	> 100	–	–	–
CCCCCCCCCCCCCCCC(=O)OCC1OC(n2c(O)c(N=NC(N)=S)c3ccc([N+](=O)[O-])cc32)C(OC(C)=O)C1OC(C)=O (stereo unspecified)	> 100	> 100	> 100	> 100	> 100	> 100	–	–	–
CCCCCCCCCc1cc(=O)c2ccc(O)cc2o1	> 100	> 100	> 100	> 100	> 100	> 100	–	–	–
O=C1C2=C(c3ccccc31)C(c1ccccc1)NC(=S)N2 (stereo unspecified)	> 100	> 100	> 100	> 100	> 100	> 100	–	–	–
N#C/C(=C\c1cccc(O)c1)C(N)=O	> 100	> 100	> 100	> 100	> 100	> 100	–	–	–
COc1nc2nccc-2c2occn12	> 100	> 100	> 100	> 100	> 100	> 100	–	–	–
O=C(CSC(=S)N1CCOCC1)Nc1nc2c(s1)CCCC2	–	> 100	> 100	> 100	> 100	> 100	–	–	–
CCOC(=O)C(=O)Nc1c(C)cccc1C	–	> 100	> 100	> 100	> 100	> 100	–	–	–
CCOC(=O)NN1C(=O)C(=P(c2ccccc2)(c2ccccc2)c2ccccc2)C(C(=O)OCC)=C1C	> 100	–	> 100	> 100	> 100	> 100	–	–	–
CN(C)CCCN1CCc2c([nH]c3ccccc23)C1c1cccnc1 (stereo unspecified)	> 100	> 100	> 100	> 100	> 100	> 100	–	–	–
COc1cc(CNc2ccc(C(C)C)cc2)cc(OC)c1OC	–	48.7	39	48.8	38.8	59	–	–	–
O=C(CN1CCN(c2ccccc2)CC1)N1CCc2c([nH]c3ccccc23)C1c1cccnc1 (stereo unspecified)	> 94.5	> 65	> 100	> 100	> 100	71.8	–	–	–
O=C(O)c1cc(=O)c2[nH]c3ccccc3c2s1	> 100	> 100	> 100	> 100	> 100	> 100	–	–	–
COc1ccc(NC(=O)c2cc(OC)c(OC)c(OC)c2)cc1	> 100	> 100	> 100	> 100	> 100	> 100	–	–	–
Cc1cccc(C(C)C)c1NC(=O)C(=O)CC(=O)c1c(C)n([O-])c2ccccc2[n+]1=O	67.4	52.1	50.6	–	> 100	–	–	–	–
CC/C=C\C/C=C\C/C=C\CCCCCCCC(=O)OCC	–	> 100	> 100	> 100	> 100	> 100	–	–	–
CC(=O)c1cc([N+](=O)[O-])ccc1OCC(=O)O	> 100	> 100	> 100	> 100	> 100	–	–	–	–
CCCCCCCCCCCCCC(=O)CBr	33.7	9.3	23.5	34.3	26	–	30.2	22.6	25
CSc1nc2c(nc(N)n2C2OCC(O)C(O)C2O)c(=O)n1C (stereo unspecified)	> 100	> 100	> 100	> 100	> 100	> 100	–	–	–
